{"source": "patent US12275685B2", "about": "“Oligo-benzamide analogs and their use in cancer treatment” (Board of Regents, The University of Texas System, priority 2018, dated 2025)", "key": {"[1]": {"tested_on": "nuclear receptor (NR) interaction with its coregulator proteins", "assay": "Inhibition of nuclear receptor-coregulator interaction in cancer cells", "type": "cell-based", "protocol": "The present oligo-benzamide analogs are extremely potent and effective on various cancer cells including breast cancer, ovarian cancer, and pancreatic cancer. These compounds have a unique mode of action compared to existing therapeutic treatments to these diseases. The compounds are very potent with IC50 values of 10-50 nM for growth inhibition. TK41 is a tris-benzamide analog and it inhibits nuclear receptor (NR) interaction with its coregulator proteins in cancer cells with high potency (IC50 is approximately 100 nM; FIGS. 1-4)."}, "tumor growth": {"tested_on": "tumor growth", "assay": "Animal studies with TK41", "type": "in vivo", "protocol": "FIGS. 4A-4C show the effect of TK41 on estrogen receptor-positive (ER+ve) tumor growth. ZR75 (ER+ve; n=18) xenografts were established in nude mice and treated with either vehicle (circle markers) or 10 mg/kg/day TK41 (square markers) administered as an oral gavage in Captisol®. Comparison of mice body weights is shown in bar graphs (FIG. 4C). *p<0.05; **** p<0.001.\nFIGS. 5A-5C show the effect of TK41 on triple negative breast cancer xenograft tumors. MDA-MB-231 (TNBC; n=10) xenografts were established in nude mice and treated with either vehicle (circle markers) or 10 mg/kg/day TK41 (square markers) administered as an oral gavage in Captisol®. Comparison of mice body weights is shown in bar graphs (FIG. 5A). Photographs of individual tumors at necropsy supports the effect of TK41 on TNBC. *p<0.05; **** p<0.001.\nTNBC is difficult to be treated and currently there are no good drugs available in the market."}, "[2]": {"tested_on": "ERMT (therapy resistant) xenografts", "assay": "ERMT therapy resistant xenografts", "type": "in vivo, nude mice", "details": "10 mg/kg/day oral", "protocol": "FIGS. 8A & 8B show the effect of TK41 (i.e., ERX-41) on therapy resistant cancer cells. ERMT (therapy resistant) xenografts (n=8) were established in nude mice and treated with vehicle (circle markers) or 10 mg/kg/day/oral ERX-41 (square markers)."}, "HMEC cells": {"tested_on": "HMEC cells", "assay": "ER stress induction in HMEC cells", "type": "cell-based, human", "details": "normal HMEC cells", "excerpt": "The basal level of expression of endoplasmic reticulum stress and unfolded protein response correlates with TK41 activity (FIG. 28). Modulation of the level of these stress proteins affects the activity of TK41. Thus, the basal level of expression of endoplasmic reticulum stress and unfolded protein response proteins may serve as a biomarker to predict response to TK41. […] Without wishing to be bound by any particular theory, the mechanism of action of TK41 may operate comprise targeting either ER or TLX and inducing endoplasmic reticulum stress, subsequent apoptosis, and blocking autophagic fusion (FIG. 30).\nERX-41 induces endoplasmic reticulum stress in TNBC. To understand the mechanism of action of ERX-41 in TNBC, the inventors performed unbiased RNA sequencing studies in three TNBC (SUM-159, MDA-MB-231, and BT549) and normal HMEC cell lines (FIGS. 36A-C). […] Heatmaps show the induction of ER stress and UPR genes in these three TNBC cell lines (FIG. 36E). Evaluation of ER stress induction was then performed with ultrastructural studies using electron microscopy (EM) studies."}, "TNBC cells with LIPA KO": {"tested_on": "TNBC cells with LIPA KO", "assay": "Response of LIPA knockout TNBC cells, CellTiter-Glo", "type": "cell-based", "details": "LIPA KO clones", "excerpt": "(§1) FIGS. 37A-J: The molecular target of ERX-41 in TNBC is LIPA. […] (FIG. 37B) Knockout clones of LIPA, ACACA, TMEM208, SOAT1 and ARID1A were generated in MDA-MB-231 cells and evaluated for response to ERX-41 using doseresponse curves using CellTiter-Glo assays in vitro. (FIGS. 37C-D) Effect of knockout of LIPA in SUM-159 (FIG. 37C) and MDA-MB436 (FIG. 37D) on dose response curve to ERX-41 using CellTiter-Glo assays in vitro. (FIGS. 37E-F) Dose response curves of SUM-159 parental cells and clones with LIPA KO to thapsigargin (FIG. 37E) and paclitaxel (FIG. 37F). (FIGS. 37G-H) Live cell imaging studies with SYTOX Green to examine ability of 1 μM ERX-41 to induce cell death in parental SUM-159 and SUM-159 clones with LIPA KO, with quantitation (FIG. 37G) and time-lapsed photomicrographs at 0 h and 30 h ((FIG. 37H). (FIGS. 37I-J) SCID mice were implanted with either parental SUM-159 or SUM-159 clones with LIPA KO (n=6, each group) and tumors were allowed to establish (150 mm^3). Following daily intraperitoneal administration of 10 mg/kg ERX-41, tumor sizes were measured and graphed (FIG. 37I), along with mice body weights (FIG. 37J). *p<0.05. **p<0.01; ***p<0.001.\n(§2) The molecular target of ERX-41 in TNBC is LIPA. […] Knockout clones of LIPA, SLC5A3, SMAP2, TMEM208, SOAT1 and ARID1A were generated in multiple TNBC cells and evaluated for response to ERX-41."}, "[3]": {"tested_on": "SUM-159 cells with LIPA KO", "assay": "Live cell imaging of SUM-159 with LIPA KO", "type": "cell-based", "details": "1 μM", "excerpt": "as §1, §2"}, "[4]": {"tested_on": "xenografts of SUM-159 with LIPA KO", "assay": "SUM-159 LIPA KO xenografts", "type": "in vivo, SCID mice", "details": "10 mg/kg daily", "excerpt": "as §1, §2"}, "primary TNBC tumors": {"tested_on": "primary TNBC tumors", "assay": "Ex vivo patient derived explant (PDE) cultures of TNBC", "type": "cell-based, human", "protocol": "FIGS. 38A-E: LIPA is a viable molecular target in TNBC. (FIG. 38A) Kaplan-Meier curves show the correlation between expression levels of LAL with survival outcomes using a TCGA dataset with numerical tabulation below. (FIGS. 38B-D) Following surgical extirpation, primary TNBC tumors were cultured ex vivo either with vehicle or 1 μM ERX-41, as shown by the schematic (FIG. 38B). The effect on proliferation index (ki67) (FIG. 38C) and apoptosis markers (cleaved caspase 3) (FIG. 38D) is graphed. Representative immunohistochemical images of the effect of ERX-41 on ki67, cleaved caspase 3 and UPR genes shown (FIG. 38E).\nERX-41 has activity on human TNBC tumors. To ascertain that ERX-41 would have activity against primary TNBC tumors, the inventors leveraged their prior significant experience with the ex vivo patient derived explant (PDE) cultures […]. The PDE cultures, maintains the native tissue architecture and better recapitulates the heterogeneity of human TNBC in a laboratory setting."}}, "data": [{"smiles": "CC(C)COc1cc(C(=O)Nc2ccc(C(=O)N[C@H]3CC[C@H](C)CC3)cc2OCC(C)C)ccc1NC(=O)c1ccc([N+](=O)[O-])c(OCCO)c1", "note": "[TK41]", "values": [{"measurement": "IC50", "setting": "[1]", "value": "~0.1", "unit": "µM"}, {"measurement": "side effects or toxicity", "setting": "tumor growth; animal studies", "value": "no apparent side effects or toxicity"}, {"measurement": "tumor growth inhibition", "setting": "tumor growth; animal studies", "value": "outstanding tumor growth inhibition"}, {"measurement": "oral availability", "setting": "tumor growth; mouse, in vivo, po", "value": "orally available"}, {"measurement": "activity against ERMT tumors", "setting": "[2]", "value": "has activity against ERMT tumors"}, {"measurement": "induction of endoplasmic reticulum stress in HMEC", "setting": "HMEC cells", "value": "does not induce endoplasmic reticulum stress"}, {"measurement": "induction of endoplasmic reticulum stress in HMEC", "setting": "HMEC cells; listed as ERX-41", "value": "unable to induce ER stress"}, {"measurement": "cytotoxic response after knockout of LIPA", "setting": "TNBC cells with LIPA KO", "value": "abrogate the cytotoxic response"}, {"measurement": "cell death after KO of LIPA", "setting": "[3]", "value": "dramatic decrease in cell death"}, {"measurement": "response of SUM-159 LIPA KO xenografts", "setting": "[4]", "value": "did not respond"}, {"measurement": "apoptosis (cleaved caspase 3 staining)", "setting": "primary TNBC tumors; 1 μM ex vivo", "value": "increased apoptosis"}, {"measurement": "proliferation (ki67 staining)", "setting": "primary TNBC tumors; 1 μM ex vivo", "value": "decreased proliferation"}, {"measurement": "UPR pathway markers by immunohistochemistry", "setting": "primary TNBC tumors; within 24 h after treatment", "value": "enhanced pPERK, CHOP (protein product of DDIT3 gene) and peiF2a staining"}]}]}
